The structures appear in SMILES notation.

T1 sequence (P31424 21-1171 isoform P31424-2 limits assumed): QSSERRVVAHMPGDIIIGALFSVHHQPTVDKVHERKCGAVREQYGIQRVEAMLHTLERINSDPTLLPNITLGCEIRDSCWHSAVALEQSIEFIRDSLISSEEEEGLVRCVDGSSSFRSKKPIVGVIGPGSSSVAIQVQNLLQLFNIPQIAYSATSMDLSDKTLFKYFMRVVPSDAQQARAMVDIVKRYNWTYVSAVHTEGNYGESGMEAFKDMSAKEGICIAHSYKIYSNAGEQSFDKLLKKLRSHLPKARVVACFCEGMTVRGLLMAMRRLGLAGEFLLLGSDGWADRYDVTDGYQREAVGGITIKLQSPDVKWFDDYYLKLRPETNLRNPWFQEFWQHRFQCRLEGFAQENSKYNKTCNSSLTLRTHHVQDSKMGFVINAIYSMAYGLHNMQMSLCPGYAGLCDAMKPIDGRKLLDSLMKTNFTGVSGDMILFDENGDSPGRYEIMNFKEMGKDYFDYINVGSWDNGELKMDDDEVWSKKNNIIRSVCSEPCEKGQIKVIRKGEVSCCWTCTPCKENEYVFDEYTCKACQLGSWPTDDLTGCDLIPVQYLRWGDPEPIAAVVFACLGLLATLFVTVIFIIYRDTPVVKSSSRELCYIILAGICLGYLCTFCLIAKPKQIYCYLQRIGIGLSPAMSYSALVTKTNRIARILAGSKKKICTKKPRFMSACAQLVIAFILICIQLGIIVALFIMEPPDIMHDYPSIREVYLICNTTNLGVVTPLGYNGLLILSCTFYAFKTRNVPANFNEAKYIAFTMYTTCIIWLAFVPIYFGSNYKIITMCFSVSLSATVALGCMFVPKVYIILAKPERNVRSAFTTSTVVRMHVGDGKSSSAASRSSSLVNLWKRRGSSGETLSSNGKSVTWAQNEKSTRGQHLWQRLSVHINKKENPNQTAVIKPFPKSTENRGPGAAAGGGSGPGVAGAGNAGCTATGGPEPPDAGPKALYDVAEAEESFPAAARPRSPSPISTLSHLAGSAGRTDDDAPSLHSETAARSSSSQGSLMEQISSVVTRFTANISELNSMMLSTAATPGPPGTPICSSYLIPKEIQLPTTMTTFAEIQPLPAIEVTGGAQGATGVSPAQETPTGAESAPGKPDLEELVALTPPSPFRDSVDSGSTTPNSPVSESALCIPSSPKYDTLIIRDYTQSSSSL

One series concerns the target T1, rat mGluR5 (Rattus norvegicus, UniProt P31424).
T1 construct: expressed in transfected cells
As to the kind of experiment: mGluR5 calcium mobilization assay (FDSS, Fluo-4) in HEK 293A cells stably expressing rat mGluR5. Conditions: HEK cells transfected with rat mGluR5; antagonism of glutamate EC80 response; ± = standard error of at least three experiments. The series is classed as cell-based. Here is the method: Human embryonic kidney (HEK) cells transfected with rat or human mGluR5 were plated in clear bottom assay plates for assay in a Functional Drug Screening System (FDSS). The cells were loaded with a Ca^2+-sensitive fluorescent dye (e.g., Fluo-4), and the plates were washed and placed in the FDSS instrument. Test compound was applied to cells 3 seconds after baseline readings were taken. Cells were incubated with the test compounds for 140 seconds and then stimulated with an EC20 concentration of an mGluR5 agonist (e.g., glutamate, 3,5-dihydroxyphenylglycine, or quisqualate); 60-80 seconds later an EC80 concentration of agonist was added and readings taken for an additional 40 seconds. Data were collected at 1 Hz. […] Concentration response curves were generated using a four parameter logistical equation.
The above described assay was operated in two modes. In the first mode (utilizing a triple add protocol), a range of concentrations of the present compounds were added to cells, followed by two single fixed concentrations of agonist (EC20 followed by EC80). If a compound acted as a potentiator, an EC50 value for potentiation of the EC20 response and a maximum extent of potentiation by the compound at this concentration of agonist was determined by non-linear curve fitting. If a compound acted as an antagonist, an IC50 value for antagonism of the EC80 response and a maximum extent of antagonism by the compound at this concentration of agonist was determined by non-linear curve fitting. In the second mode (utilizing a double add protocol), several fixed concentrations of the present compounds were added to various wells on a plate, followed by a range of concentrations of agonist for each concentration of present compound; the EC50 values for the agonist at each concentration of compound were determined by nonlinear curve fitting. A decrease in the EC50 value of the agonist with increasing concentrations of the present compounds (a leftward shift of the agonist concentration-response curve) is an indication of the degree of mGluR5 positive allosteric modulation at a given concentration of the present compound. An increase in the EC50 value of the agonist with increasing concentrations of the present compounds (a rightward shift of the agonist concentration response curve) is an indication of the degree of mGluR5 antagonism at a given concentration of the present compound. The second mode also indicates whether the present compounds also affect the maximum response to mGluR5 to agonists.
The mGluR5 activity was determined using the calcium mobilization assays in human embryonic kidney cells as described herein below, wherein the human embryonic kidney cells were transfected with rat mGluR5. The mGluR5 activity data for some compounds are shown as the average of at least three experiments with the standard error in these cases. If no error is indicated for the mGluR5 activity, the values given represent the results from a single experiment or the average of two experiments. The compounds in Table 1 were synthesized with methods identical or analogous to those shown herein. The requisite starting materials were commercially available, described in the literature, or readily synthesized by one skilled in the art of organic synthesis.
GluMax is the amplitude of response in the presence of 30 μM test compound as a percentage of maximal response (100 μM glutamate). Partial antagonists display concentration-response curves (CRCs) that plateau above 10%.
The preparation of rat mGluR5 stable cell-lines is as previously described (e.g. see Romano et al. J Biol. Chem. 1996 Nov. 8; 271(45):28612-6).
For orientation: A change in cytosolic calcium serves as a functional read-out for many receptors and channels.
The IC50 is the concentration at which inhibition is half-maximal. For `N#Cc1cncc(Oc2cc(C(=O)Nc3ccc(F)cn3)c3nccn3c2)c1`, the half-inhibitory concentration (IC50) turned out to be 51 nM.

Consider `O=C(Nc1ccccn1)c1cc(Oc2cncc(Cl)c2)cn2ccnc12`, for which the IC50 worked out at 33 nM.

On to `COc1cccc(NC(=O)c2cc(Oc3cncc(F)c3)cn3cnnc23)n1`, for which the IC50 came to 146 nM.

`O=C(Nc1ccc(F)cn1)c1cc(Oc2cccnc2)cn2ncnc12`: the IC50 came to 25 nM.

For `Cc1csc(NC(=O)c2cc(Oc3cncc(Cl)c3)cn3ncnc23)n1`, the IC50 came to 62 nM.

Turning to `Cc1nc(NC(=O)c2cc(Oc3cncc(Cl)c3)cn3ncnc23)ccc1F`, the IC50 worked out at 380 nM.

In the case of `COc1ccc(NC(=O)c2cc(Oc3cncc(C)c3)cn3ncnc23)nc1`, the IC50 is 275 nM.

In the case of `COc1cncc(Oc2cc(C(=O)Nc3cccc(C)n3)c3nccn3c2)c1`, the IC50 came to 80 nM.

As to `O=C(Nc1cc(F)ccn1)c1cc(Oc2cncc(F)c2)cn2cnnc12`, the IC50 was found to be 1170 nM.

Take `O=C(Nc1ccccn1)c1cc(Oc2cncnc2)cn2ncnc12`: the IC50 was 219 nM.

For `CCc1cccc(NC(=O)c2cc(Oc3cncc(F)c3)cn3cnnc23)n1`, the IC50 amounted to 168 nM.

With `Cc1nc2c(C(=O)Nc3cccc(F)n3)cc(Oc3cncc(F)c3)cn2n1`, the IC50 worked out at 410 nM.

As for `O=C(Nc1ccc(F)cn1)c1cc(Oc2cncc(F)c2)cn2cnnc12` [drawing 160], the IC50 is 28 ± 7 nM.

As to `[2H]c1nc(NC(=O)c2cc(Oc3cncc(OC)c3)cn3ccnc23)c([2H])c([2H])c1[2H]`, the IC50 came out at 46 nM.

In the case of `O=C(Nc1nc(C(F)(F)F)cs1)c1cc(Oc2cncnc2)cn2ncnc12`, the IC50 was 535 nM.

For `CCc1cccc(NC(=O)c2cc(Oc3cncc(OC)c3)cn3cnnc23)n1` [drawing 282], the IC50 was 1420 nM.

In the case of `Cc1ccc(NC(=O)c2cc(Oc3cncc(C)c3)cn3ncnc23)nc1`, the IC50 was 267 nM.

`Cc1ncc(Oc2cc(C(=O)Nc3ccc(F)cn3)c3nccn3c2)cn1`: the IC50 was found to be 3710 nM.

Take `Cc1ccc(NC(=O)c2cc(Oc3cncc(Cl)c3)cn3ncnc23)nc1`: the 50% inhibitory concentration (IC50) was found to be 135 nM.

Turning to `Cc1csc(NC(=O)c2cc(Oc3cncc(F)c3F)cn3ncnc23)n1`, the IC50 turned out to be 83 nM.

Take `COc1cncc(Oc2cc(C(=O)Nc3ccc(F)c(C)n3)c3ncnn3c2)c1`: the IC50 was found to be 1070 nM.

In the case of `COc1cncc(Oc2cc(C(=O)Nc3ccc(F)c(C)n3)c3nncn3c2)c1`, the IC50 turned out to be 10300 nM.

With `Cc1nnc2c(C(=O)Nc3ccccn3)cc(Oc3cncc(F)c3)cn12`, the IC50 is 172 nM.

As to `COc1cccc(NC(=O)c2cc(Oc3cnc(C)nc3)cn3cnnc23)n1`, the IC50 is > 10000 nM.

The test system of another series is male Harlan CD-1 mice.
Test: not given
Conditions: literature; cited from earlier work.
Regarding `CN1CC(=O)N=C1NC(=O)Nc1cccc(Cl)c1` [fenobam, 1-(3-chlorophenyl)-3-(1-methyl-4-oxo-4,5-dihydro-1H-imidazol-2-yl)urea], the “effect in marble burying model” value is recorded as “effective”.

With `Cc1cccc(C#Cc2ccccc2)n1` [MPEP, 2-methyl-6-(phenylethynyl) pyridine], the “effect in marble burying model” value is recorded as “effective”.

The subject of another series is N-methyl-D-aspartate (NMDA) receptor.
Test: not given
Conditions: at higher concentrations; cited from earlier work.
As for `Cc1cccc(C#Cc2ccccc2)n1` [MPEP, 2-methyl-6-(phenylethynyl) pyridine], the NMDA receptor activity result is listed as “directly inhibit”.

Another series deals with mGluR4 (Homo sapiens, UniProt Q14833).
Chain of mGluR4 (Q14833 33-912): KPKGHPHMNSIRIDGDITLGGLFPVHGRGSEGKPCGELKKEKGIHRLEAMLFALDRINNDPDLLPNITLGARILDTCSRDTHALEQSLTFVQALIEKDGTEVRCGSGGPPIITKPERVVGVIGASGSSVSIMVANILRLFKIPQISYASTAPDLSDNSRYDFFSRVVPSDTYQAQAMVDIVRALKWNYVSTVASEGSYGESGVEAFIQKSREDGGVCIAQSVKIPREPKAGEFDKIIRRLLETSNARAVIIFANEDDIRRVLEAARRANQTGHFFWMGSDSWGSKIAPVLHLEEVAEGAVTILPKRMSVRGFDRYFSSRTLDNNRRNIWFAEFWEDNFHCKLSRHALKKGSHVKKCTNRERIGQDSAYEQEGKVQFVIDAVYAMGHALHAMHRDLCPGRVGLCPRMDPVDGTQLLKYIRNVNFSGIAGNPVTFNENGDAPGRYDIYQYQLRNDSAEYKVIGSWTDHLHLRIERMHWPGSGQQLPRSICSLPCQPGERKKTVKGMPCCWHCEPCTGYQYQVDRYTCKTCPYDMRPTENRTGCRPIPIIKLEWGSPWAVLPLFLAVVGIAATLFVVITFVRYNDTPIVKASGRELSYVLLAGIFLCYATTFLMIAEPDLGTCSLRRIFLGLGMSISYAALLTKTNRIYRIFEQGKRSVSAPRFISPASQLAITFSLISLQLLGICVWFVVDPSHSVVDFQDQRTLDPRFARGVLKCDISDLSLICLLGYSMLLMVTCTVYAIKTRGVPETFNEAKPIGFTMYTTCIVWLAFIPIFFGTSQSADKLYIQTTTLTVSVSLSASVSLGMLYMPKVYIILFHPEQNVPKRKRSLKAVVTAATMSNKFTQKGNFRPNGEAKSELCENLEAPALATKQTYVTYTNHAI
Test: not given
Conditions: cited from earlier work.
Take `Cc1cccc(C#Cc2ccccc2)n1` [MPEP, 2-methyl-6-(phenylethynyl) pyridine]: the “activity at mGluR4” value was “positive allosteric modulator”.

The target of another series is T2, cytochrome P450 1A2 (Homo sapiens, UniProt P05177).
T2 sequence (P05177 1-516): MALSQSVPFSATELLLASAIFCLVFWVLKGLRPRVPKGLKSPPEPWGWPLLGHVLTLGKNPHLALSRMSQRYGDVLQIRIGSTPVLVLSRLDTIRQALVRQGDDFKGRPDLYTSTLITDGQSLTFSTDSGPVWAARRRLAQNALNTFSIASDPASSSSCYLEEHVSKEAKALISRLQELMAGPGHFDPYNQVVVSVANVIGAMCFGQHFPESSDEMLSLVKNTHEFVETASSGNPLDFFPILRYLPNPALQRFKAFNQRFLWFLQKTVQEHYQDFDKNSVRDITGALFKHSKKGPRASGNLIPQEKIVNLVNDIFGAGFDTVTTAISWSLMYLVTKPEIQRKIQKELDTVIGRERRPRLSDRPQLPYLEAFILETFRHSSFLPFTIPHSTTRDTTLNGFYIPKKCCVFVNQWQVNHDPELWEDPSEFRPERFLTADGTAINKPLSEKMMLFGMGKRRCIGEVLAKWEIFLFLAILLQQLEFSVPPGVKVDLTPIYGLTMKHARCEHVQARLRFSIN
Test: not given
Conditions: cited from earlier work.
In the case of `Cc1nc(C#Cc2cccnc2)cs1` [MTEP, 3-[(2-methyl-1,3-thiazol-4-yl)ethynyl]pyridine], the “cytochrome P450 1A2 inhibition” value is “potent inhibitor”.

Test system in the next series: not given
Test: not given
Conditions: intravenous administration, rhesus monkeys; cited from earlier work.
Consider `Cc1nc(C#Cc2cccnc2)cs1` [MTEP, 3-[(2-methyl-1,3-thiazol-4-yl)ethynyl]pyridine], for which the clearance result was “efficiently cleared”.

The record behind these values is patent US9844542B2, “Substituted imidazopyridine and triazolopyridine compounds as negative allosteric modulators of mGluR5” (Vanderbilt University, priority 2013, dated 2017).
